# Source: patent US10736856B2, “Use of xibornol as active agent in the treatment of viral infections” (priority 2016, dated 2020)
# “Also recorded” adds a separate entry of the source.
# What was measured:
# Test in all cases: Xibornol virucidal efficacy test (UNI EN 14476 adapted), residual viral titer by Karber micromethod
# Details in all cases: for Average viral titre after 15 minutes contact / Logarithmic reduction: 15 minutes contact
# Human Adenovirus 5 = assay type: cell-based
# Description: (§1) The experimentation was conducted by using the following strains from ATCC: • VR-5 Human Adenovirus 5; Strain: Adenoid 75, • VR-286 Picornaviridae, Rhinovirus, Human Rhinovirus A, • VR-740 Human Coronavirus.
# (§2) The cell lines used for the isolation of the target viruses were: • ATCC CCL-2 HeLa—Cervical Adenocarcinoma—Human (Homo sapiens), briefly ‘HeLa’, for the study of Human Adenovirus 5 and Human Rhinovirus, and • ATCC CCL-171 MRC-5-Lung Fibroblast-Human (Homo Sapiens), briefly ‘MRC-5’ for the study of Human Coronavirus.
# (§3) The tests to assess the toxicity of xibornol were performed as per UNI EN 14476 protocol, which refers to the “virucidal activity of chemical disinfectants or antiseptics for tools, surfaces or hands forming a physically stable homogeneous mixture when diluted with hard water or water”, suitably adapted, also considering that xibornol is soluble in alcohol (ethanol) that is already well known to have toxic effects for cell cultures.
# (§4) Therefore, it was decided to use preparations in which xibornol was diluted with different solvents, in order also to be able to test both the solution and the suspension condition. After several tests, a reliable method was set up, by using Labrasol®, namely caprylocaproyl polyoxyl-8 glyceride, as solvent and formulating xibornol in solution.
# (§5) For each of the 3 viruses, 3 replicates were performed with 10 mL mixtures consisting of: • 1 mL Labrasol® (“clean” tests) or 1 mL of fetal bovine serum (“dirt” tests); • 8 mL xibornol for each dilution (8%, 3%, 0.5%) at the non-toxic concentration for the cell cultures: 10^−3, 10^−2 and 10^−1 respectively, and corresponding to 0.008 g/100 mL, 0.030 g/100 mL and […]. Dilutions made in Labrasol®; • 1 mL of virus with known titer.
# (§6) The tests carried out in “dirt” situations, specified by the standard protocol, were intended to create a more “difficult” environment for the performance of the virucidal activity by xibornol, hindered in its activity by the presence of further polluting components, as actually happens in the application environment of the active ingredient, allowing recreating and simulating as closely as possible the conditions of use.
# (§7) For tests performed in “dirt” condition, the erythrocytes were not mixed with the bovine fetal serum, as indicated by the European standard, because of the interfering effect they have towards the cell lines used in the tests, which would have led to difficulties in interpreting the results.
# (§8) Moreover, for each replicate, a negative control was used, consisting of: • 1 mL virus; • 9 mL Labrasol® (“clean” tests) or 8 mL Labrasol®+1 mL fetal bovine serum (“dirt” tests).
# (§9) Contact time: 15 minutes.
# (§10) After this interval, the mixtures were analysed to assess the residual viral titer by titration, Karber micromethod.
# (§11) The data obtained were analysed with the Excel program for the evaluation of averages and total logarithmic standard deviations.
# Human Coronavirus = assay type: cell-based, Human Coronavirus (ATCC VR-740), titrated on MRC-5
# Description: as §1, §2, §3, §4, §5, §6, §7, §8, §9, §10, §11
# Human Rhinovirus = assay type: cell-based, Human Rhinovirus A (ATCC VR-286), titrated on HeLa
# Description: as §1, §2, §3, §4, §5, §6, §7, §8, §9, §10, §11
# [1] = after 15 minutes of contact, all concentrations tested (0.008, 0.030, 0.05 g/100 mL)
# [2] = extrapolated from trend curve to xibornol 3 g per 100 mL of solution
# [3] = “clean” test, working concentration 0.008 g/100 mL (8% solution, dilution 10^−3)
# [4] = “clean” test, working concentration 0.03 g/100 mL (3% solution, dilution 10^−2)
# [5] = “clean” test, working concentration 0.05 g/100 mL (0.5% solution, dilution 10^−1)
# [6] = “dirt” test (fetal bovine serum), working concentration 0.008 g/100 mL (8% solution, dilution 10^−3)
# [7] = “dirt” test (fetal bovine serum), working concentration 0.03 g/100 mL (3% solution, dilution 10^−2)
# [8] = “dirt” test (fetal bovine serum), working concentration 0.05 g/100 mL (0.5% solution, dilution 10^−1)
smiles,measurement,setting,value
"Cc1cc(O)c(C2CC3CCC2(C)C3(C)C)cc1C (centres unmarked) [xibornol, 4,5-dimethyl-2-[1,7,7-trimethylbicyclo[2.2.1]heptan-2-yl]phenol]",killing extent (reduction of viral load),Human Adenovirus 5; [1],greater than 2 orders of magnitude
same,"final average titer after treatment, extrapolated",Human Adenovirus 5; [2],very close to zero
same,"reduction of the viral load titer (expressed as logarithm), extrapolated",Human Adenovirus 5; [2],at least of two orders of magnitude; also recorded: almost total reduction
same,Average viral titre after 15 minutes contact,Human Adenovirus 5; [3],2 ± 0.8 Log DCP50/mL
same,Logarithmic reduction,Human Adenovirus 5; [3],2.4
same,Average viral titre after 15 minutes contact,Human Adenovirus 5; [4],1.3 ± 1 Log DCP50/mL
same,Logarithmic reduction,Human Adenovirus 5; [4],3.1
same,Average viral titre after 15 minutes contact,Human Adenovirus 5; [5],1.1 ± 0.1 Log DCP50/mL
same,Logarithmic reduction,Human Adenovirus 5; [5],3.3
same,Average viral titre after 15 minutes contact,Human Adenovirus 5; [6],1.1 ± 0.6 Log DCP50/mL
same,Logarithmic reduction,Human Adenovirus 5; [6],2
same,Average viral titre after 15 minutes contact,Human Adenovirus 5; [7],1.2 ± 0.6 Log DCP50/mL
same,Logarithmic reduction,Human Adenovirus 5; [7],1.9
same,Average viral titre after 15 minutes contact,Human Adenovirus 5; [8],0.8 ± 0.5 Log DCP50/mL
same,Logarithmic reduction,Human Adenovirus 5; [8],2.3
same,"reduction of the viral titer, average",Human Adenovirus 5; “dirt” tests,more than two orders of magnitude
same,killing extent (reduction of viral load),Human Coronavirus; [1],greater than 2 orders of magnitude
same,killing peak (reduction of viral load),"Human Coronavirus; after 15 minutes of contact, highest value reached",3.8 orders of magnitude
same,"final average titer after treatment, extrapolated",Human Coronavirus; [2],very close to zero
same,"reduction of the viral load titer (expressed as logarithm), extrapolated",Human Coronavirus; [2],at least of two orders of magnitude; also recorded: almost total reduction
same,Average viral titre after 15 minutes contact,Human Coronavirus; [3],1.8 ± 0.7 Log DCP50/mL
same,Logarithmic reduction,Human Coronavirus; [3],3.4
same,Average viral titre after 15 minutes contact,Human Coronavirus; [4],1.4 ± 0 Log DCP50/mL
same,Logarithmic reduction,Human Coronavirus; [4],3.8
same,Average viral titre after 15 minutes contact,Human Coronavirus; [5],1.6 ± 0.3 Log DCP50/mL
same,Logarithmic reduction,Human Coronavirus; [5],3.6
same,Average viral titre after 15 minutes contact,Human Coronavirus; [6],1.7 ± 0.7 Log DCP50/mL
same,Logarithmic reduction,Human Coronavirus; [6],2.3
same,Average viral titre after 15 minutes contact,Human Coronavirus; [7],1.5 ± 0.6 Log DCP50/mL
same,Logarithmic reduction,Human Coronavirus; [7],2.6
same,Average viral titre after 15 minutes contact,Human Coronavirus; [8],1.6 ± 0.4 Log DCP50/mL
same,Logarithmic reduction,Human Coronavirus; [8],2.5
same,"reduction of the viral titer, average",Human Coronavirus; “dirt” tests,more than two orders of magnitude
same,killing extent (reduction of viral load),Human Rhinovirus; [1],greater than 2 orders of magnitude
same,"final average titer after treatment, extrapolated",Human Rhinovirus; [2],very close to zero
same,"reduction of the viral load titer (expressed as logarithm), extrapolated",Human Rhinovirus; [2],at least of two orders of magnitude; also recorded: almost total reduction
same,Average viral titre after 15 minutes contact,Human Rhinovirus; [3],2 ± 0.1 Log DCP50/mL
same,Logarithmic reduction,Human Rhinovirus; [3],2.2
same,Average viral titre after 15 minutes contact,Human Rhinovirus; [4],1.3 ± 0.5 Log DCP50/mL
same,Logarithmic reduction,Human Rhinovirus; [4],2.9
same,Average viral titre after 15 minutes contact,Human Rhinovirus; [5],1.2 ± 0.4 Log DCP50/mL
same,Logarithmic reduction,Human Rhinovirus; [5],3
same,Average viral titre after 15 minutes contact,Human Rhinovirus; [6],1 ± 0.1 Log DCP50/mL
same,Logarithmic reduction,Human Rhinovirus; [6],2.8
same,Average viral titre after 15 minutes contact,Human Rhinovirus; [7],0.7 ± 0.1 Log DCP50/mL
same,Logarithmic reduction,Human Rhinovirus; [7],3.1
same,Average viral titre after 15 minutes contact,Human Rhinovirus; [8],0.8 ± 0.1 Log DCP50/mL
same,Logarithmic reduction,Human Rhinovirus; [8],3
same,"reduction of the viral titer, average",Human Rhinovirus; “dirt” tests,more than two orders of magnitude
same,"reduction of the viral titer, highest reached",Human Rhinovirus; “dirt” tests,≥ 3 orders of magnitude
